In experiment [1] the test system is BV-173R cells (T315I BCR-ABL). Nature of the experiment: MTT assay after 72 h, BV-173R cells. The experiment is classed as cell-based, human. The settings on record: 72 h of drug incubation. (In general: Formazan colour is commonly taken as a measure of viable cells.)
For experiment [2], the system named is Stat3. Nature of the experiment: IL-6 stimulated Stat3 activation (pY-Stat3) immunoblot in MM-1 cells. The experiment is classed as cell-based. The protocol:
Left: MM-1 cells were pretreated with Degrasyn (5 μM WP1130) for 2 h before incubation with IL-6 (10 ng/ml) for 15 min. Cell lysates were prepared and assessed for Stat3 activation (pY-Stat3) and protein levels (Stat3) by immunoblotting. Actin was used as a control for protein loading.
Left: MM-1 cells were pretreated with buffer alone (−), AG490 (50 μM) or Degrasyn (5 μM) for 2 h before incubation with IL-6 for 15 min. Cell lysates were prepared and Jak2 was immunoprecipitated and immunoblotted with anti-Jak2 (top). Cell lysates (50 μg) were immunoblotted for pY-Stat3, Stat3 or actin.
Western Blot analysis. Cells were harvested, washed twice in cold 1×PBS and lysed in modified RIPA lysis buffer (150 mM NaCl, 1% NP-40, 0.5% Na-deoxycholate [DOC], 0.1% Na-dodecyl sulfate [SDS], 50 mM Tris-HCl (pH 7.5), 1 mM EDTA, 1 mM NaF, 2 mM Na-vanadate, with protease inhibitors (1 mM PMSF, 1 mM benzamidine, 10 μg/ml aprotinin, 10 μg/ml leupeptin) on ice for 30 min. The lysed cells were centrifuged at 13,000 rpm for 30 min and the supernatant collected. The protein concentration of the cell lysate was determined by the Bradford Protein Assay. Fifty to 60 μg of protein were resolved in a 10% SDS-PAGE, and transferred to a PVDF membrane. […]

Experiment [3] deals with T1, w/t BCR-ABL (Homo sapiens, UniProt P00519).
T1 construct: BV-173, a lymphoid CML cell line expressing w/t BCR-ABL; endogenous in cells; host or cells: BV-173; the other entry of the earlier key: BCR (P11274, Breakpoint cluster region protein)
Nature of the experiment: pBCR-ABL and BCR-ABL immunoblot in BV-173 cells. Format: cell-based. Set-up: dose or concentration left out as unconfirmed. The note with it: 1 h. The protocol: (§1) Actin was probed as protein loading control.
(§2) Western Blot analysis. […] Western blotting was performed using specific primary antibodies Peroxidase-conjugated affiniPure anti-Mouse Anti-Rabbit secondary antibodies (Jackson Immunoresearch Laboratories, West Grove, Pa.). The proteins were visualized with ECL Plus reagents (Amersham Biosciences).

In experiment [4] the target is T2, BCR-ABL (T315I) (Homo sapiens, UniProt P00519, T315I).
T2 construct: endogenous in cells; host or cells: BV-173R; the other entry of the earlier key: BCR (P11274, Breakpoint cluster region protein)
Description: pBCR-ABL and BCR-ABL immunoblot in BV-173R cells. The settings on record: 1 h. The experiment is classed as cell-based. Set-up: dose or concentration left out as unconfirmed. The protocol:
as §1, §2
(In general: Immunoblotting shows a protein as a band on a membrane.)

Experiment [5] concerns CML cells expressing the T315I mutant BCR-ABL. Nature of the experiment: Clonal outgrowth of CML cells from imatinib resistant patients. The settings on record: cells of 2 patients that failed imatinib therapy. Format: cell-based, human. The source says: Isolation of cellular fractions from clinical specimens. Mononuclear cells were isolated from peripheral blood or bone marrow of imatinib-resistant CML patients after informed consent was obtained for a protocol reviewed and approved by the Institutional Review Board of M.D. Anderson Cancer Center. Cells were purified on Ficoll-Hypaque gradients.

Experiment [6] concerns the target T3, HA-tagged c-myc (Homo sapiens, UniProt P01106).
T3 construct: labeled at the termini as 1 and 439; expressed in transfected cells; host or cells: HeLa
Description: HA-tagged c-myc stability in transfected HeLa cells. The experiment is classed as cell-based. The note with it: 1 h treatment. The procedure: Bottom: Expression vectors for HA-tagged c-myc or HA-tagged IKKγ (tagged at the N-terminus) were transfected (at the DNA content indicated) into HeLa cells as described in the methods section above. Twenty-four h later, cells were treated with Degrasyn for 1 h before harvesting cells, extracting protein and subjecting equal protein lysates to immunoblotting for c-myc (left) or IKKγ (right) using an HA-directed antibody. Actin was immunoblotted as a control for protein loading. […] These cells and transfection system were used to map the domains important for Degrasyn mediated destabilization by deletion analysis (FIG. 20).
Analysis of wild-type and mutant (deleted) c-myc protein stability. A c-myc expression vector (pCGN-MYC) was obtained from Dr. William Tansey (Cold Springs Harbor, N.Y.) and initially used to transfect HeLa cancer cells (with the SN2 cationic lipid). In subsequent studies, the c-myc gene was subcloned downstream of the HA antigen in the pcDNA3.1 vector, allowing efficient detection of transfected c-myc by anti-HA immunoblotting. Multiple site-specific mutations and domain deletions were introduced into the c-myc gene using the Stratagene Quickchange II XL kit and specific dual primer sets. The deletions/mutations were verified by direct sequencing before use. […]

Experiment [7] deals with p70 and p55 tyrosine phosphorylation. Description: Phosphotyrosine (4G10) immunoblot in B-cell malignancy cell lines. Format: cell-based. The protocol: MM-1 cells were pretreated with Degrasyn (at the concentration indicated) for 2 h before the addition of IL-6 for 15 min (as noted). Total cell lysates were prepared and equal protein aliquots were resolved by SDS-PAGE and immunoblotted for phosphotyrosine (4G10).
MM-1 and LP (lymphoma) cells were treated with Degrasyn (at the concentration indicated) for 2 h before cell lysates were prepared and equal protein aliquots were resolved by SDS-PAGE and immunoblotted for phosphotyrosine (4G10).
MM-1 and Mino (Mantle cell lymphoma) cells were treated with Degrasyns with different levels of anti-tumor efficacy (at the concentration indicated) for 2 h before cell lysates were prepared and equal protein aliquots were resolved by SDS-PAGE and immunoblotted for phosphotyrosine (4G10).
MM-1 cells were treated as indicated before analysis of cellular tyrosine phosphorylation by immunoblotting. Both p70 and p55 were tyrosine phosphorylated after 15 min of Degrasyn treatment which peaks in intensity after 1 h and remains higher than control levels after 4 h. These early changes may underlie or be a marker of Degrasyn activity in B-cell malignancies.
Western Blot analysis. Cells were harvested, washed twice in cold 1×PBS and lysed in modified RIPA lysis buffer (150 mM NaCl, 1% NP-40, 0.5% Na-deoxycholate [DOC], 0.1% Na-dodecyl sulfate [SDS], 50 mM Tris-HCl (pH 7.5), 1 mM EDTA, 1 mM NaF, 2 mM Na-vanadate, with protease inhibitors (1 mM PMSF, 1 mM benzamidine, 10 μg/ml aprotinin, 10 μg/ml leupeptin) on ice for 30 min. The lysed cells were centrifuged at 13,000 rpm for 30 min and the supernatant collected. The protein concentration of the cell lysate was determined by the Bradford Protein Assay. Fifty to 60 μg of protein were resolved in a 10% SDS-PAGE, and transferred to a PVDF membrane. Western blotting was performed using specific primary antibodies Peroxidase-conjugated affiniPure anti-Mouse Anti-Rabbit secondary antibodies (Jackson Immunoresearch Laboratories, West Grove, Pa.). The proteins were visualized with ECL Plus reagents (Amersham Biosciences).

1 molecule from US20100292229A1, “TRYPHOSTIN-ANALOGS FOR THE TREATMENT OF CELL PROLIFERATIVE DISEASES” (The Board of Regents of the University of Texas System, priority 2006, published 2010) can be followed below.

T3 sequence (P01106 16-454): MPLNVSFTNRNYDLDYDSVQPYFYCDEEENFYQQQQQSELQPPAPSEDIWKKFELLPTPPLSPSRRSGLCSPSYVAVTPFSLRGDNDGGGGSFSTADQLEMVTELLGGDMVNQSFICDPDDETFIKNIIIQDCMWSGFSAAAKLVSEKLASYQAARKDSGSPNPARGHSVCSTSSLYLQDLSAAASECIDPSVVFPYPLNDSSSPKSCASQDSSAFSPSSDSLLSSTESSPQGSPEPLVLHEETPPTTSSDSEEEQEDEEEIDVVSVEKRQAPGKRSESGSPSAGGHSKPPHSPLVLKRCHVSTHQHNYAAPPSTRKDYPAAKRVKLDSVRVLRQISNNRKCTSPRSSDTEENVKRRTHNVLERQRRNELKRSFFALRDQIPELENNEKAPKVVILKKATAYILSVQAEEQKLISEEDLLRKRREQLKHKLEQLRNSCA

For the molecule `CCC[C@H](NC(=O)/C(C#N)=C/c1cccc(Br)n1)c1ccccc1` [Degrasyn], the “Activity in MTT assay, BV-173R vs BV-173” value in experiment [1] is “equally active against both cell types”. In addition, the “Stat3 activation (pY-Stat3)” value in experiment [2] (5 μM, 2 h pretreatment, IL-6 10 ng/ml 15 min) is on record as “blocked Stat3 activation”. In addition, in experiment [2] (Degrasyn 5 μM vs AG490 50 μM, 2 h, IL-6 15 min), the “Stat3 activation compared with AG490” value was “reduces Stat3 activation more effectively than 10-fold greater concentrations of AG490”. Besides, the “pBCR-ABL and BCR-ABL protein levels, BV-173” value in experiment [3] is “reduced BCR-ABL protein levels in both w/t and mutant BCR-ABL expressing cells”. Besides, the “pBCR-ABL and BCR-ABL protein levels, BV-173R” value in experiment [4] is “reduced BCR-ABL protein levels in both w/t and mutant BCR-ABL expressing cells”. In addition, the “Colony formation of leukemic cells” value in experiment [5] is “more effective than imatinib in suppressing colony formation”. For the same molecule, in experiment [6], the “HA-tagged c-myc and HA-tagged IKKγ levels” value is given as “reduced HA-tagged c-myc but did not affect HA-tagged IKKγ”. For the same molecule, the “Tyrosine phosphorylated protein species (~70 kDa, ~55 kDa)” value in experiment [7] (2 h, MM-1, LP or Mino cells) is given as “increased”. In experiment [7] (MM-1), the “Time at which p70 and p55 were tyrosine phosphorylated” value was 15 min; the “Time of peak intensity of p70 and p55 tyrosine phosphorylation” value turned out to be 1 h. In experiment [7] (MM-1, 2 h pretreatment, IL-6 15 min), the “Tyrosine phosphorylated protein species (~70 kDa, ~55 kDa), with IL-6” value is listed as “increased”.
